Laboratory results reported in US6737383B1, “Herbicidal oxadiazolidines” (priority 1999, dated 2004).

Key:
[1] = system: cocklebur; test: Test B pre/postemergence cocklebur; type: in vivo, Xanthium strumarium
Procedure, shortened: (§1)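 Test chemicals in a non-phytotoxic solvent mixture with surfactant were sprayed preemergence onto planted seeds and postemergence onto plants 2 to 18 cm tall (1- to 4-leaf stage). After twelve to sixteen days in a greenhouse, injury was visually rated against untreated controls from 0 (no effect) to 10 (complete control).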

[2] = system: blackgrass; test: Test B pre/postemergence blackgrass; type: in vivo, Alopecurus myosuroides
Procedure, shortened: as §1

[3] = system: crabgrass; test: Test B pre/postemergence crabgrass; type: in vivo, Digitaria sanguinalis
Procedure, shortened: as §1

[4] = system: corn; test: Test B pre/postemergence corn; type: in vivo, Zea mays
Procedure, shortened: as §1

[5] = system: morningglory; test: Test B pre/postemergence morningglory; type: in vivo, Ipomoea hederacea
Procedure, shortened: as §1

[6] = system: giant foxtail; test: Test B pre/postemergence giant foxtail; type: in vivo, Setaria faberii
Procedure, shortened: as §1

[7] = system: smallflower flatsedge; test: Test B flood test smallflower flatsedge; type: in vivo, Cyperus difformis; details: for S. Flatsedge plant response rating: Postemergence section (flood test species)
Procedure, shortened: (§2)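 Read-out is a visual response score from 0 (no effect) to 10 (complete control), assigned by comparison with untreated controls. Treatment was applied at the 2-leaf stage, and plants stayed in the greenhouse for twelve to sixteen days before scoring.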

[8] = system: rape; test: Test B pre/postemergence rape; type: in vivo, Brassica napus
Procedure, shortened: as §1

[9] = system: bedstraw; test: Test B pre/postemergence bedstraw; type: in vivo, Galium aparine; details: Postemergence
Procedure, shortened: as §1

[10] = system: duck salad; test: Test B flood test duck salad; type: in vivo, Heteranthera limosa
Procedure, shortened: as §2

[11] = system: bamyardgrass; test: Test B flood test barnyardgrass; type: in vivo, Echinochloa crus-galli
Procedure, shortened: as §2

[12] = system: wild oat; test: Test B pre/postemergence wild oat; type: in vivo, Avena fatua
Procedure, shortened: as §1

[13] = system: velvetleaf; test: Test B pre/postemergence velvetleaf; type: in vivo, Abutilon theophrasti
Procedure, shortened: as §1

[14] = system: surinam grass; test: Test B pre/postemergence surinam grass; type: in vivo, Brachiaria decumbens
Procedure, shortened: as §1

[15] = system: soybean; test: Test B pre/postemergence soybean; type: in vivo, Glycine max
Procedure, shortened: as §1

[16] = system: wheat; test: Test B pre/postemergence wheat; type: in vivo, Triticum aestivum
Procedure, shortened: as §1

[17] = Postemergence, Rate 250 g/ha, scale 0 to 10, 0 is no effect, 10 is complete control
[18] = Postemergence, Rate 500 g/ha, scale of 0 to 10 where 0 is no effect and 10 is complete control
[19] = Preemergence, Rate 62 g/ha, scale 0 to 10 (0 no effect, 10 complete control)
[20] = Preemergence, Rate 125 g/ha, scale of 0 to 10 where 0 is no effect and 10 is complete control
[21] = Preemergence, Rate 500 g/ha, scale 0 to 10, 0 is no effect, 10 is complete control
[22] = Rate 62 g/ha, Postemergence, scale of 0 to 10 where 0 is no effect and 10 is complete control
[23] = Rate 125 g/ha, Postemergence, scale 0 to 10, 0 is no effect, 10 is complete control
[24] = Preemergence, Rate 250 g/ha, scale of 0 to 10 where 0 is no effect and 10 is complete control
[25] = Preemergence, Rate 250 g/ha, scale 0 to 10, 0 is no effect, 10 is complete control
[26] = Rate 500 g/ha, scale of 0 to 10 where 0 is no effect and 10 is complete control
[27] = Rate 125 g/ha, scale 0 to 10, 0 is no effect, 10 is complete control
[28] = flood test species, listed under Postemergence, Rate 250 g/ha, scale 0 to 10, 0 is no effect, 10 is complete control
[29] = Postemergence section (flood test species), Rate 500 g/ha, scale of 0 to 10 where 0 is no effect and 10 is complete control
[30] = Rate 62 g/ha, Postemergence (flood test species), scale of 0 to 10 where 0 is no effect and 10 is complete control
[31] = Rate 125 g/ha, Postemergence section (flood test species), scale 0 to 10, 0 is no effect, 10 is complete control

SMILES: CC(C)N(C(=O)n1oc(=O)n(C(CF)CF)c1=O)c1ccccc1 [Compound 421]
- Plant response rating, Cocklebur [1, 17]: 1
- Cocklebur plant response rating [1, 18]: 6
- Plant response rating, Cocklebur [1, 19]: 0
- Plant response rating, Cocklebur [1, 20]: 0
- Cocklebur plant response rating [1, 21]: 0
- Cocklebur plant response rating [1, 22]: 0
- Cocklebur plant response rating [1, 23]: 0
- Plant response rating, Blackgrass [2, 17]: 8
- Blackgrass plant response rating [2, 18]: 10
- Plant response rating, Blackgrass [2, 19]: 8
- Plant response rating, Blackgrass [2, 20]: 10
- Blackgrass plant response rating [2, 24]: 10
- Blackgrass plant response rating [2, 21]: 10
- Blackgrass plant response rating [2, 22]: 8
- Blackgrass plant response rating [2, 23]: 8
- Plant response rating, Crabgrass [3, 17]: 8
- Crabgrass plant response rating [3, 18]: 8
- Plant response rating, Crabgrass [3, 19]: 8
- Plant response rating, Crabgrass [3, 20]: 8
- Crabgrass plant response rating [3, 25]: 9
- Crabgrass plant response rating [3, 21]: 10
- Crabgrass plant response rating [3, 22]: 4
- Crabgrass plant response rating [3, 23]: 7
- Plant response rating, Corn [4, 17]: 3
- Corn plant response rating [4, 18]: 7
- Plant response rating, Corn [4, 19]: 4
- Plant response rating, Corn [4, 20]: 5
- Corn plant response rating [4, 25]: 8
- Corn plant response rating [4, 21]: 8
- Corn plant response rating [4, 22]: 0
- Corn plant response rating [4, 23]: 0
- Plant response rating, Morningglory [5, 17]: 9
- Morningglory plant response rating [5, 18]: 10
- Plant response rating, Morningglory [5, 19]: 4
- Plant response rating, Morningglory [5, 20]: 6
- Morningglory plant response rating [5, 25]: 7
- Morningglory plant response rating [5, 21]: 8
- Morningglory plant response rating [5, 23]: 8
- Plant response rating, Giant foxtail [6, 17]: 9
- Giant foxtail plant response rating [6, 18]: 9
- Plant response rating, Giant foxtail [6, 19]: 9
- Plant response rating, Giant foxtail [6, 20]: 10
- Giant foxtail plant response rating [6, 25]: 10
- Giant foxtail plant response rating [6, 21]: 10
- Giant foxtail plant response rating [6, 22]: 8
- Giant foxtail plant response rating [6, 23]: 9
- S. Flatsedge plant response rating [7, 26]: 0
- S. Flatsedge plant response rating [7, 27]: 0
- Plant response rating, S. Flatsedge [7, 28]: 0
- Plant response rating, Rape [8, 17]: 3
- Rape plant response rating [8, 18]: 8
- Plant response rating, Rape [8, 19]: 8
- Plant response rating, Rape [8, 20]: 10
- Rape plant response rating [8, 25]: 10
- Rape plant response rating [8, 21]: 10
- Rape plant response rating [8, 23]: 0
- Plant response rating, Bedstraw ([9]; Rate 250 g/ha, scale 0 to 10, 0 is no effect, 10 is complete control): 7
- Bedstraw plant response rating [9, 26]: 7
- Bedstraw plant response rating [9, 27]: 4
- Ducksalad plant response rating [10, 29]: 2
- Ducksalad plant response rating [10, 30]: 0
- Ducksalad plant response rating [10, 31]: 0
- Plant response rating, Ducksalad [10, 28]: 2
- Barnyardgrass plant response rating [11, 29]: 3
- Barnyardgrass plant response rating [11, 30]: 0
- Barnyardgrass plant response rating [11, 31]: 0
- Plant response rating, Barnyardgrass [11, 28]: 2
- Wild oats plant response rating [12, 18]: 8
- Plant response rating, Wild oats [12, 19]: 6
- Plant response rating, Wild oats [12, 20]: 7
- Wild oats plant response rating [12, 25]: 10
- Wild oats plant response rating [12, 21]: 10
- Wild oats plant response rating [12, 23]: 0
- Plant response rating, Velvetleaf [13, 17]: 4
- Velvetleaf plant response rating [13, 18]: 7
- Plant response rating, Velvetleaf [13, 19]: 8
- Plant response rating, Velvetleaf [13, 20]: 9
- Velvetleaf plant response rating [13, 25]: 10
- Velvetleaf plant response rating [13, 21]: 10
- Velvetleaf plant response rating [13, 23]: 0
- Plant response rating, B. signalgrass [14, 17]: 7
- B. signalgrass plant response rating [14, 18]: 10
- Plant response rating, B. signalgrass [14, 19]: 7
- Plant response rating, B. signalgrass [14, 20]: 8
- B. signalgrass plant response rating [14, 24]: 9
- B. signalgrass plant response rating ([14]; Preemergence, Rate 500 g/ha, scale of 0 to 10 where 0 is no effect and 10 is complete control): 9
- B. signalgrass plant response rating [14, 22]: 0
- B. signalgrass plant response rating [14, 23]: 3
- Plant response rating, Soybean [15, 17]: 7
- Soybean plant response rating [15, 18]: 8
- Plant response rating, Soybean [15, 19]: 4
- Plant response rating, Soybean [15, 20]: 4
- Soybean plant response rating [15, 25]: 5
- Soybean plant response rating [15, 21]: 10
- Soybean plant response rating [15, 23]: 6
- Wheat plant response rating [16, 18]: 7
- Plant response rating, Wheat [16, 19]: 4
- Plant response rating, Wheat [16, 20]: 4
- Wheat plant response rating [16, 25]: 7
- Wheat plant response rating [16, 21]: 9
- Wheat plant response rating [16, 23]: 1
